Data taken from patent publication US20230263758A1, “COMPOSITIONS OF EDTA HAVING ACTIVITY AGAINST PLANKTONIC AND BIOFILM CELLS OF CLINICALLY RELEVANT PATHOGENS” (SterileCare Inc., priority 2022, published 2023).
Counter-ions that a name gives are not always drawn.

Experiments:
[1] = system: Staphylococcus epidermidis SK9; experiment: Checkerboard FBEC index, 48-h biofilm; assay type: cell-based; conditions: S. epidermidis SK9 biofilm
Protocol: (§3) In step (4), microtiter plates are incubated at 37° C. for 24 h. then (6), after incubation, the bacterial and fungal cells were dislodged from the pegs into the recovery medium described above.
(§4) Three 10-μL aliquots, for a total of 30 μL from each well of recovery medium, were spotted on MH agar plates and incubated for 24 h at 37° C. […] The FBEC determination is a modification of the FICI.

Escherichia coli ON29 [2] = experiment: Checkerboard titration, FICI; assay type: cell-based; conditions: E. coli ON29
Protocol: (§1) A fourth composition and solution included tetrasodium EDTA with ethanol or chlorhexidine HCl. This fourth composition and solution were created using checkerboard titration methods using micro broth dilution in 96-well microtiter plates. The concentrations of antimicrobials used were based on previously determined MIC values. Briefly, 200 μL of two-fold dilutions of tetrasodium EDTA and ethanol or chlorhexidine HCl were prepared in MH or MH II broth with standardized cell suspension. […] Microtiter plates were incubated at 37° C. for 24 h, and the results were analyzed. Each test was performed in duplicate and included a growth control without adding any antimicrobials.

[3] = system: Staphylococcus epidermidis ON170; experiment: Checkerboard titration, FICI; assay type: cell-based; conditions: S. epidermidis ON170
Protocol: as §1

[4] = system: Staphylococcus aureus ON89; experiment: Checkerboard titration, FICI; assay type: cell-based; conditions: S. aureus ON89
Protocol: as §1

[5] = system: 48-h old biofilms of bacterial and fungal test organisms; experiment: Rapid biofilm eradication, 2-h exposure; assay type: cell-based; conditions: each agent alone at its MBEC
Protocol: Determining rapid biofilm eradication by tetrasodium EDTA, ethanol, and chlorhexidine HCl alone and in combination was performed. After biofilm formation, control pegs (n=6) were removed and analyzed to determine the starting biofilm cell numbers via the drop dilution method. The 48-h old biofilms on the pegs were exposed to different concentrations of test antimicrobials, dissolved in an appropriate growth medium, for two h to evaluate their efficacy alone and in combination. […] Following treatment, pegs were washed twice with sterile PBS, and the biofilm cells were dislodged into recovery medium and enumerated as described above.
The method for rapid biofilm eradication ability of test antimicrobials alone and in combination against 48-h-old biofilms within two h exposure time included (1) choosing different concentrations of test antimicrobials to assess their potency in eradicating preformed biofilms of study organisms within two h. Then (2) the quantitative recovery from biofilms following exposure to the antimicrobial solutions for bacterial strains (FIGS. 4A-4C) and fungal strains (FIG. 5) was evaluated.

Escherichia coli SK2 = experiment: Checkerboard FBEC index, 48-h biofilm; assay type: cell-based; conditions: E. coli SK2 biofilm; EDTA + chlorhexidine HCl
Protocol: as §3, §4

E. coli SK2 = experiment: Checkerboard titration, FICI; assay type: cell-based, Escherichia coli
Protocol: as §1

MRSA ON184 = experiment: Checkerboard, FMCI; assay type: cell-based, Staphylococcus aureus; conditions: EDTA + chlorhexidine HCl
Protocol: (§2) An assay was made using a minimum inhibitory concentration (MIC) and minimum bactericidal concentration (MBC) and minimum fungicidal concentration (MFC) determination. The MIC was determined by the micro broth dilution method in 96-well plates. Serial two-fold dilutions of tetrasodium EDTA (from 2% to 0.015%), ethanol (from 50% to 0.1%) and chlorhexidine HCl (from 100 μg/mL to 0.025 μg/mL) were prepared in MH broth with a final volume of 90 μL per well. A 10 μL containing 1×10^5 bacterial cells or 2×10^3 fungal cells were added to each well. The inoculated plates were covered with a lid, sealed with Parafilm, and incubated for 24 h at 37° C. with slight rocking on a tilting platform shaker. After incubation, the optical density at 600 nm (OD 600) of the cultures in each well was measured using an xMark™ Microplate Absorbance Spectrophotometer (Bio-Rad). […] MBCs and MFCs were determined by transferring 100 μL from each well with no apparent growth onto appropriate agar plates, followed by incubation for 24 h at 37° C.
A fourth composition and solution included tetrasodium EDTA with ethanol or chlorhexidine HCl. […] The concentrations of antimicrobials used were based on previously determined MIC values. […] Microtiter plates were incubated at 37° C. for 24 h, and the results were analyzed. […]

C. albicans ON47 [6] = experiment: MIC, micro broth dilution; assay type: cell-based, Candida albicans; conditions: agent alone
Protocol: as §2

Serratia marcescens SK2 [7] = experiment: MBC/MFC determination; assay type: cell-based; conditions: S. marcescens SK2; agent alone
Protocol: as §2

Escherichia coli ON29 [8] = experiment: MBC/MFC determination; assay type: cell-based; conditions: E. coli ON29; agent alone
Protocol: as §2

Proteus mirabilis ON153 [9] = experiment: MBC/MFC determination; assay type: cell-based; conditions: P. mirabilis ON153; agent alone
Protocol: as §2

[10] = system: Pseudomonas aeruginosa SK1; experiment: MBC/MFC determination; assay type: cell-based; conditions: P. aeruginosa SK1; agent alone
Protocol: as §2

[11] = system: Staphylococcus epidermidis ON170; experiment: MBC/MFC determination; assay type: cell-based; conditions: S. epidermidis ON170; agent alone
Protocol: as §2

[12] = system: Staphylococcus aureus ON89; experiment: MBC/MFC determination; assay type: cell-based; conditions: S. aureus ON89; agent alone
Protocol: as §2

[13] = system: Stenotrophomonas maltophilia ON17; experiment: MBC/MFC determination; assay type: cell-based; conditions: S. maltophilia ON17; agent alone
Protocol: as §2

Candida albicans SK4b [14] = experiment: MBC/MFC determination; assay type: cell-based; conditions: C. albicans SK4b; agent alone
Protocol: as §2

C. albicans ON47 [15] = experiment: MBC/MFC determination; assay type: cell-based, Candida albicans; conditions: agent alone
Protocol: as §2

Serratia marcescens SK2 [16] = experiment: MIC, micro broth dilution; assay type: cell-based; conditions: S. marcescens SK2; agent alone
Protocol: as §2

Escherichia coli ON29 [17] = experiment: MIC, micro broth dilution; assay type: cell-based; conditions: E. coli ON29; agent alone
Protocol: as §2

Proteus mirabilis ON153 [18] = experiment: MIC, micro broth dilution; assay type: cell-based; conditions: P. mirabilis ON153; agent alone
Protocol: as §2

[19] = system: Pseudomonas aeruginosa SK1; experiment: MIC, micro broth dilution; assay type: cell-based; conditions: P. aeruginosa SK1; agent alone
Protocol: as §2

[20] = system: Staphylococcus epidermidis ON170; experiment: MIC, micro broth dilution; assay type: cell-based; conditions: S. epidermidis ON170; agent alone
Protocol: as §2

[21] = system: Staphylococcus aureus ON89; experiment: MIC, micro broth dilution; assay type: cell-based; conditions: S. aureus ON89; agent alone
Protocol: as §2

[22] = system: Stenotrophomonas maltophilia ON17; experiment: MIC, micro broth dilution; assay type: cell-based; conditions: S. maltophilia ON17; agent alone
Protocol: as §2

Candida albicans SK4b [23] = experiment: MIC, micro broth dilution; assay type: cell-based; conditions: C. albicans SK4b; agent alone
Protocol: as §2

Candida albicans SK4b [24] = experiment: Checkerboard FBEC index, 48-h biofilm; assay type: cell-based; conditions: C. albicans SK4b biofilm; EDTA + chlorhexidine HCl
Protocol: as §3, §4

S. epidermidis SK9 = experiment: MIC, micro broth dilution; assay type: cell-based, Staphylococcus epidermidis; conditions: agent alone
Protocol: as §2

[25] = EDTA + chlorhexidine HCl checkerboard

## [H]/N=C(\N/C(=N/[H])NCCCCCCNC(=N)NC(=N)Nc1ccc(Cl)cc1)Nc1ccc(Cl)cc1 [Chlorhexidine HCl, chlorhexidine HCl, reference compound]
[1]; EDTA + chlorhexidine HCl
  Biofilm eradication concentration in combination (FBEC): 3.125 µg/mL
Escherichia coli ON29 [2]; [25]
  Inhibitory concentration in combination: 0.2 µg/mL
[3]; [25]
  Inhibitory concentration in combination: 0.05 µg/mL
[4]; [25]
  Inhibitory concentration in combination: 0.1 µg/mL
[5]
  Eradication of preformed biofilms after 2 h of exposure: failed to eradicate
Escherichia coli SK2
  Biofilm eradication concentration in combination (FBEC): 3.125 µg/mL
E. coli SK2; [25]
  Inhibitory concentration in combination: 0.1 µg/mL
MRSA ON184
  Microbicidal concentration in combination: 0.4 µg/mL

## O=C([O-])CN(CCN(CC(=O)[O-])CC(=O)[O-])CC(=O)[O-].[Na+].[Na+].[Na+].[Na+] [EDTA, tetrasodium EDTA]
[1]; EDTA + ethanol
  Biofilm eradication concentration in combination (FBEC): 0.031 % w/v
C. albicans ON47 [6]
  MIC: 1 % w/v
Escherichia coli ON29 [2]; [25]
  Inhibitory concentration in combination: 0.008 % w/v
Escherichia coli ON29 [2]; EDTA + ethanol checkerboard
  Inhibitory concentration in combination: 0.25 % w/v
[3]; [25]
  Inhibitory concentration in combination: 0.063 % w/v
[3]; EDTA + ethanol checkerboard
  Inhibitory concentration in combination: 0.015 % w/v
[4]; [25]
  Inhibitory concentration in combination: 0.008 % w/v
[4]; EDTA + ethanol checkerboard
  Inhibitory concentration in combination: 0.015 % w/v
Serratia marcescens SK2 [7]
  MBC/MFC: 2 % w/v
Escherichia coli ON29 [8]
  MBC/MFC: 1 % w/v
Proteus mirabilis ON153 [9]
  MBC/MFC: 2 % w/v
[10]
  MBC/MFC: 1 % w/v
[11]
  MBC/MFC: 0.5 % w/v
[12]
  MBC/MFC: 1 % w/v
[13]
  MBC/MFC: 1 % w/v
Candida albicans SK4b [14]
  MBC/MFC: 1 % w/v
C. albicans ON47 [15]
  MBC/MFC: 1 % w/v
[5]
  Eradication of preformed biofilms after 2 h of exposure: failed to eradicate
Serratia marcescens SK2 [16]
  MIC: 2 % w/v
Escherichia coli ON29 [17]
  MIC: 0.5 % w/v
Proteus mirabilis ON153 [18]
  MIC: 1 % w/v
[19]
  MIC: 0.25 % w/v
[20]
  MIC: 0.063 % w/v
[21]
  MIC: 0.063 % w/v
[22]
  MIC: 0.063 % w/v
Candida albicans SK4b [23]
  MIC: 1 % w/v
Escherichia coli SK2
  Biofilm eradication concentration in combination (FBEC): 0.031 % w/v
E. coli SK2; [25]
  Inhibitory concentration in combination: 0.008 % w/v
E. coli SK2; EDTA + ethanol checkerboard
  Inhibitory concentration in combination: 0.015 % w/v
Candida albicans SK4b [24]
  Biofilm eradication concentration in combination (FBEC): 0.063 % w/v
S. epidermidis SK9
  MIC: 0.063 % w/v
